This note sets out measurements from ChEMBL document CHEMBL3627608, “Crystal structures of human RIP2 kinase catalytic domain complexed with ATP-competitive inhibitors: Foundations for understanding inhibitor selectivity” (Bioorg Med Chem, 2015).

The target in assay [1] is Vascular endothelial growth factor receptor 1 (Homo sapiens) (UniProt P17948). Kind of assay: Inhibition of FLT1 (unknown origin) at 10 uM after 120 mins P33 radiolabeled kinase activity assay.
The target in assay [2] is Serine/threonine-protein kinase pim-1 (Homo sapiens) (UniProt P11309). Kind of assay: Inhibition of PIM1 (unknown origin) at 10 uM after 120 mins P33 radiolabeled kinase activity assay.
The target in assay [3] is Serine/threonine-protein kinase PLK3 (Homo sapiens) (UniProt Q9H4B4). Kind of assay: Inhibition of PLK3 (unknown origin) at 10 uM after 120 mins P33 radiolabeled kinase activity assay.
Assay [4] addresses T1, Serine/threonine-protein kinase LATS1 (Homo sapiens) (UniProt O95835).
T1 sequence (whole entry): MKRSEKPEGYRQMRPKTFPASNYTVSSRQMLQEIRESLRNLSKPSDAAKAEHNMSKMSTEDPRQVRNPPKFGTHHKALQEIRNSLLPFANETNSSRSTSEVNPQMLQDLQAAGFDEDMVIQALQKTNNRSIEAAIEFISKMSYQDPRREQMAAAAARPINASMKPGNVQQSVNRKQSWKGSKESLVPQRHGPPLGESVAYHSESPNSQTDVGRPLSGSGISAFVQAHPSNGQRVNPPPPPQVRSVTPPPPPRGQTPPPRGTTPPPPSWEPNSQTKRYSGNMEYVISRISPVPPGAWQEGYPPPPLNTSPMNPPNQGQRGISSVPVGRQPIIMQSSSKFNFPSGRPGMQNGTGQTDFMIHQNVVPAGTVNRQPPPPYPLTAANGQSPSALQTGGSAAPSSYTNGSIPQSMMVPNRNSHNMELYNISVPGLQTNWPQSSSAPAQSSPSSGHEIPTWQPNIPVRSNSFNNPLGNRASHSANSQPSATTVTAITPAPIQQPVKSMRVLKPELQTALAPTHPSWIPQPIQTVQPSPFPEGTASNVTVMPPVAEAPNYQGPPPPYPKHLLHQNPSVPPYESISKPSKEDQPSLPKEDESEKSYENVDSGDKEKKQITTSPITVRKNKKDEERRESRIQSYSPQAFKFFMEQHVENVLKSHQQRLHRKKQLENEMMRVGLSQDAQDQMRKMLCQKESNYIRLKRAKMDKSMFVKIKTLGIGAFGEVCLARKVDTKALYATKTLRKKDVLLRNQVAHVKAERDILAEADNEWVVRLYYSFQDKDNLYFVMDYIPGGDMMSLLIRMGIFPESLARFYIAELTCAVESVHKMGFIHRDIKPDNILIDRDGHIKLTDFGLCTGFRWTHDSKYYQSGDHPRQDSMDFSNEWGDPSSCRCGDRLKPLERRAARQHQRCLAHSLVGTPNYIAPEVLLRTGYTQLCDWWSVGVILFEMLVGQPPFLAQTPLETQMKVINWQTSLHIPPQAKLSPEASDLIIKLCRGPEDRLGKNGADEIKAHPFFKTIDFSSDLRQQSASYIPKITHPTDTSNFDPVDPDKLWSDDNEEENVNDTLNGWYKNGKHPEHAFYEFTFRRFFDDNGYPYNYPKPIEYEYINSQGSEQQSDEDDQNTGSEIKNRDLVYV
Kind of assay: Inhibition of LATS (unknown origin) at 10 uM after 120 mins P33 radiolabeled kinase activity assay.

The target in assay [5] is Serine/threonine-protein kinase 38 (Homo sapiens) (UniProt Q15208). Kind of assay: Inhibition of STK38 (unknown origin) at 10 uM after 120 mins P33 radiolabeled kinase activity assay.
Assay [6] concerns the target TRAF2 and NCK-interacting protein kinase (Homo sapiens) (UniProt Q9UKE5). Kind of assay: Inhibition of TNIK (unknown origin) at 10 uM after 120 mins P33 radiolabeled kinase activity assay.
Assay [7] concerns the target Non-receptor tyrosine-protein kinase TYK2 (Homo sapiens) (UniProt P29597). Kind of assay: Inhibition of TYK2 (unknown origin) at 10 uM after 120 mins P33 radiolabeled kinase activity assay.
The target of assay [8] is Cyclin-dependent kinase 14 (Homo sapiens) (UniProt O94921). Kind of assay: Inhibition of PFTK1 (unknown origin) at 10 uM after 120 mins P33 radiolabeled kinase activity assay.
Sequence of Cyclin-dependent kinase 14 (Homo sapiens) (O94921 whole entry): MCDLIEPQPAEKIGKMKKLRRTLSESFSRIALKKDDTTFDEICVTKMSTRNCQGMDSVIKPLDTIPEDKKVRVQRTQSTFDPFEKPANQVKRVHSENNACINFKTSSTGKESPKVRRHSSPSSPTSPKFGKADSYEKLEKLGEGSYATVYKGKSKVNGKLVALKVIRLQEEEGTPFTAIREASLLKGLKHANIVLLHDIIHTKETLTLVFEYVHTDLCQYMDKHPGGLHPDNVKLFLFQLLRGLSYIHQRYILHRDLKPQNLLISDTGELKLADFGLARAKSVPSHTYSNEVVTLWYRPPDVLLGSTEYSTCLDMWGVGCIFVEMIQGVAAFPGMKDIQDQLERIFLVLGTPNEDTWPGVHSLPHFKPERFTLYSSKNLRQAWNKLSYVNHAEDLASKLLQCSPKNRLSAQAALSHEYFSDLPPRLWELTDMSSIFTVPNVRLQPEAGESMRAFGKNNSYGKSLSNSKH
The target of assay [9] is Cyclin-dependent kinase 18 (Homo sapiens) (UniProt Q07002). Kind of assay: Inhibition of PCTK3 (unknown origin) at 10 uM after 120 mins P33 radiolabeled kinase activity assay.
Assay [10] has as its target CDK1/Cyclin E (Homo sapiens) (UniProt P06493+P24864). Kind of assay: Inhibition of CDK1/cyclin E (unknown origin) at 10 uM after 120 mins P33 radiolabeled kinase activity assay. In kind it is protein-complex assay.

Sequence of CDK1/Cyclin E (Homo sapiens) (P06493 whole entry, looked up): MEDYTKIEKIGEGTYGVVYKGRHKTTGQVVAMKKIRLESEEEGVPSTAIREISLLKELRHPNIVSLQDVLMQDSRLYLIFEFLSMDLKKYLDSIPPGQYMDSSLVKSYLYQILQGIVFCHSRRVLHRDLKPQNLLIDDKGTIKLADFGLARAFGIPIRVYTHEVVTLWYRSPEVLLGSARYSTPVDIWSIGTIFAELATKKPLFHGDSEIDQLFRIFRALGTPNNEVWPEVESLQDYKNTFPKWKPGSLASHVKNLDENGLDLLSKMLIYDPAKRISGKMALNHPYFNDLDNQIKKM
Sequence of CDK1/Cyclin E (Homo sapiens) (P24864 whole entry, looked up): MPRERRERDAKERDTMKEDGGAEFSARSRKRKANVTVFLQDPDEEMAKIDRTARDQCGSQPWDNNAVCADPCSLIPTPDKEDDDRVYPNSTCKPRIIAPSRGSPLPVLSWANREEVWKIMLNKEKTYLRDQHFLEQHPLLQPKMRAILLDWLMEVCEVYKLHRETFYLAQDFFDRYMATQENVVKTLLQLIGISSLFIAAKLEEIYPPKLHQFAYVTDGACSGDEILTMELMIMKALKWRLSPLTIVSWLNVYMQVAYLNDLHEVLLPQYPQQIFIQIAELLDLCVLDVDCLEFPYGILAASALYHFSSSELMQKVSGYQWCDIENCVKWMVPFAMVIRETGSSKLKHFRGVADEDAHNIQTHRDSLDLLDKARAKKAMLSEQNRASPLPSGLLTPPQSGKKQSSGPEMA
Sequence of Non-receptor tyrosine-protein kinase TYK2 (Homo sapiens) (P29597 whole entry): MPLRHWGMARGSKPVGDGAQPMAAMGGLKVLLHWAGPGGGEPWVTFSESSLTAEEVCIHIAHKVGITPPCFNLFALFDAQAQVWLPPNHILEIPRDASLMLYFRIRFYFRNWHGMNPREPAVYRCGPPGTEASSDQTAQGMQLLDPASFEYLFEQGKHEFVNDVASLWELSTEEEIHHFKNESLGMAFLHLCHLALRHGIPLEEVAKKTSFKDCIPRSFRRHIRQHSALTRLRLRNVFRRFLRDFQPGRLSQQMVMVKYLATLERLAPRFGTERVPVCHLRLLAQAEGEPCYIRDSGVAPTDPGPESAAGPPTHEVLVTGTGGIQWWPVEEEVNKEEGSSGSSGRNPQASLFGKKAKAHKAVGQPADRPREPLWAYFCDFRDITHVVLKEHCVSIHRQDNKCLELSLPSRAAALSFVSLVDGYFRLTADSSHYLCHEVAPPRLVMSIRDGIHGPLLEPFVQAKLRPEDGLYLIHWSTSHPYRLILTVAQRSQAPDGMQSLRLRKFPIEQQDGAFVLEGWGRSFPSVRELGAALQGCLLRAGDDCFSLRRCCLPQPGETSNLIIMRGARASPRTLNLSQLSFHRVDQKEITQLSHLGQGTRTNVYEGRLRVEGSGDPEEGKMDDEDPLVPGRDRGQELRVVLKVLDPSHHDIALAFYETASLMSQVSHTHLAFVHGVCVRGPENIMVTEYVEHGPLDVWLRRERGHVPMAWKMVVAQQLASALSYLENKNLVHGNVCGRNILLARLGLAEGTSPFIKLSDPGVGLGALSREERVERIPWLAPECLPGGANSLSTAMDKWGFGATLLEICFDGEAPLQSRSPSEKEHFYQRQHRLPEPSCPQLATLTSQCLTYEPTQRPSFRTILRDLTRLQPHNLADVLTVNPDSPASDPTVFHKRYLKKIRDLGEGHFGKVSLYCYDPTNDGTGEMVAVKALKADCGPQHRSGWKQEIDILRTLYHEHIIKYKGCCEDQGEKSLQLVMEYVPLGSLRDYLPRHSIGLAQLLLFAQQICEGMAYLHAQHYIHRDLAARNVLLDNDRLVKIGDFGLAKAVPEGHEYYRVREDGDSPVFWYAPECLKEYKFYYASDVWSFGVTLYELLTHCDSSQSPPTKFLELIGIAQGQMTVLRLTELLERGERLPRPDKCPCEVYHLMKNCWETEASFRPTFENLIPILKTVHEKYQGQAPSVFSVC
Sequence of Vascular endothelial growth factor receptor 1 (Homo sapiens) (P17948 whole entry): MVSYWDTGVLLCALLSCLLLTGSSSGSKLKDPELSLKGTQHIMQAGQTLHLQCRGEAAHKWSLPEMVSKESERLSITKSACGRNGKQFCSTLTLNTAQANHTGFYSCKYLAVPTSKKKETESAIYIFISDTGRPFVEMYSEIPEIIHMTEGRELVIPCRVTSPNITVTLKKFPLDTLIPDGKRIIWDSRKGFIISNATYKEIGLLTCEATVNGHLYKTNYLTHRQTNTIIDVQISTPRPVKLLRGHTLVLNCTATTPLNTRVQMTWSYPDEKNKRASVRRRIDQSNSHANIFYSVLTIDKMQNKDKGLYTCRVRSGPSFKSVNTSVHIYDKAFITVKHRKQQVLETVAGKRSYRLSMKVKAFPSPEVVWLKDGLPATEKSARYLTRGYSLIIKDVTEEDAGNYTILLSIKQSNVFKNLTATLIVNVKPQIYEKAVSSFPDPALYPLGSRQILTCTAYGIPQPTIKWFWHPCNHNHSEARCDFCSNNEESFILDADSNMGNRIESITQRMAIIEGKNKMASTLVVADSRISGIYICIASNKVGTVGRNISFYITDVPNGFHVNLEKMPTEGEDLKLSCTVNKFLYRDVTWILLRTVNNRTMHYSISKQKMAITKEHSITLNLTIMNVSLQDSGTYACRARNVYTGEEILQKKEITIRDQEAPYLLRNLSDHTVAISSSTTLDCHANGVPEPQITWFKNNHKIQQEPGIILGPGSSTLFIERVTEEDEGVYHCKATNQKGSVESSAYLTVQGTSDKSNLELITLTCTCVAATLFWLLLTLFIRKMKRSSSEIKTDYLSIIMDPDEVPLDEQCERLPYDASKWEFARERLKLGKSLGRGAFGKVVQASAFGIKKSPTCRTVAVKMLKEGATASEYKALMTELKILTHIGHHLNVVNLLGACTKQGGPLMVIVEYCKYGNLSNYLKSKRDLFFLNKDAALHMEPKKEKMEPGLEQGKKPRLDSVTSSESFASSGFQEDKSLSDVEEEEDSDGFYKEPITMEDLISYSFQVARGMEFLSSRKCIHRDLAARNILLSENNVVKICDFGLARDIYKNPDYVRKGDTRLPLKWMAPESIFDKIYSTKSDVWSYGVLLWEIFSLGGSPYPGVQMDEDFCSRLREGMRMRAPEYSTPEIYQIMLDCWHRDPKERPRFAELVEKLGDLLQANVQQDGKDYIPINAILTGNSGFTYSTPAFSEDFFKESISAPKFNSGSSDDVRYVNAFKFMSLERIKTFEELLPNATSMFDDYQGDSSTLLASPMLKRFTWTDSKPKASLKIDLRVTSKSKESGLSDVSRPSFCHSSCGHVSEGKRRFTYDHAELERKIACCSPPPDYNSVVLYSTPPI
Sequence of TRAF2 and NCK-interacting protein kinase (Homo sapiens) (Q9UKE5 whole entry, looked up): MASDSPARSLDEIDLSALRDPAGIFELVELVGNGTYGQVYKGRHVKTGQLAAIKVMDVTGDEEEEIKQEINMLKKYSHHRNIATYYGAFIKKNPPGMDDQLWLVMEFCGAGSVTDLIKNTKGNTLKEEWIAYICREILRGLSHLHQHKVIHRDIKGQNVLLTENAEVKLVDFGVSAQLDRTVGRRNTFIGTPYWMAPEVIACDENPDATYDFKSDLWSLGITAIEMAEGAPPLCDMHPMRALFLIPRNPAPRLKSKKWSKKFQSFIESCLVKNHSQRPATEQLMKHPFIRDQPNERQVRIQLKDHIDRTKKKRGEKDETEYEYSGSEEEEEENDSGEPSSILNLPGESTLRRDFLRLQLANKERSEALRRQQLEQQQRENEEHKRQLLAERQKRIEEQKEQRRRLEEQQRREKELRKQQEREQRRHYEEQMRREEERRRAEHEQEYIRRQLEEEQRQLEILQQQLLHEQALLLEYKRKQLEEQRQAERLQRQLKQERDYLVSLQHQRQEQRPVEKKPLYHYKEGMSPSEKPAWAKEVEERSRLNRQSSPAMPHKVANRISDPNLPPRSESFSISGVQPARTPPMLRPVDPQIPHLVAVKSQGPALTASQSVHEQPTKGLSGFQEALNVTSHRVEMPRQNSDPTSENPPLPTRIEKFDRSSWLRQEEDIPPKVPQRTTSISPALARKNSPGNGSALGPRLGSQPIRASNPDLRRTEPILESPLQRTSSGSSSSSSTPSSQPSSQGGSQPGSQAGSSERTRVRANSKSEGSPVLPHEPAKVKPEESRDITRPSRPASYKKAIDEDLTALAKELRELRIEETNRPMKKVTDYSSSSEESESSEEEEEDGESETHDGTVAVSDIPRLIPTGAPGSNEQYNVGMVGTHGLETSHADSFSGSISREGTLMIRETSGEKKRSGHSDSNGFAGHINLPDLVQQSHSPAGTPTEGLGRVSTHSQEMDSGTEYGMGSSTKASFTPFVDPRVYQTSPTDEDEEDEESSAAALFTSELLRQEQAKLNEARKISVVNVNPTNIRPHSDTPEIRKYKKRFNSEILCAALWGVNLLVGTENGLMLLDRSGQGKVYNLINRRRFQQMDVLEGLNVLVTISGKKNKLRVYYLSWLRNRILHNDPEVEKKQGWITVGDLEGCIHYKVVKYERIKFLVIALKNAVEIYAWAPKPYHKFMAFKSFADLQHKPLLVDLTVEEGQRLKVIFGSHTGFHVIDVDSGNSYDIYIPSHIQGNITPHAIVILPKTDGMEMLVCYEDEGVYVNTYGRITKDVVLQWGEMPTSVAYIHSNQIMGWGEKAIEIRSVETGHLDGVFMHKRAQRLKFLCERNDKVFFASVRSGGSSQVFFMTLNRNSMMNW

Broadly, the inhibition is the change of the read-out against control, counted positive when it falls. Turning to `COCCNC(=O)c1ccc2c(c1)nc(-c1cnc(-c3ccc(Cl)cc3)[nH]1)n2CCOC`, the inhibition in [1] worked out at 0.33%; in assay [2], 7.46%; in assay [3], 0.99%; in [4] it was 3.53%; in assay [5] it was 3.88%; in [6], 48.4%. In addition, the inhibition in assay [7] is 13.2%; in assay [8], -3.92%; in [9] it was -6.38%; in assay [10] it was -2.74%.

As to `CC(C)(C)c1cc(NC(=O)Nc2ccc(Oc3ccncc3)cc2)no1`, the inhibition in assay [1] is 97.5%; in assay [2], 64.5%; in assay [3], -1.93%; in assay [4], 9.91%; in [5] it was 3.87%; in assay [6], 93.9%. In addition, the inhibition worked out at 9.99% in [7], 86.7% in assay [8], 92.2% in assay [9] and 72.2% in assay [10].

As to `CS(=O)(=O)c1cccc(Nc2nccc(-c3sc(N4CCOCC4)nc3-c3cccc(NS(=O)(=O)c4c(F)cccc4F)c3)n2)c1`, the inhibition in assay [1] is 98%; in assay [2] it was 10.6%; in assay [3], 3.68%; in assay [4] it was 11%; in assay [5], 27.4%; in [6] it was 82.6%. The inhibition in [7] is 54.8%; in [8], 50.9%; in assay [9], 27.3%; in assay [10], 78.3%.
